Measured values published in patent US20260325561A1, “4'-SUBSTITUTED NUCLEOSIDES AND NUCLEOTIDES AS ANTIVIRAL AGENTS” (THE SCRIPPS RESEARCH INSTITUTE, priority 2023, published 2026).

Columns and labels:
DENV-2 = assay: microbe, parasite or virus in culture; assay type: cell-based, DENV-2 16681; settings: Dengue virus, DENV2, HepG2, 24 h, read-out: DENV-2 / HepG2 EC50
SARS-CoV-2 = assay: microbe, parasite or virus in culture; assay type: cell-based, SARS-CoV-2 strain USA-WA1/2020; settings: Severe acute respiratory syndrome coronavirus 2, HeLa-ACE2, 24 h, read-out: SARS-CoV-2 / HeLa-ACE2 EC50
RSV A2 = assay: microbe, parasite or virus in culture; assay type: cell-based; settings: human respiratory syncytial virus, HEp-2, 72 h, read-out: RSV A2 / Hep2 EC50
HRV 14 = assay: microbe, parasite or virus in culture; assay type: cell-based, Human Rhinovirus 14 strain 1059; settings: Rhinovirus B, H1-HeLa, 48 h, read-out: HRV / H1 HeLa B 14 EC50
HRV 16 = assay: microbe, parasite or virus in culture; assay type: cell-based, Human Rhinovirus 16 strain 11757; settings: Rhinovirus A, H1-HeLa, 48 h, read-out: HRV / H1 HeLa A16 EC50
in vitro [1] = settings: human, hepg2 cells
in vitro [2] = settings: human, hela-ace2 cells
in vitro [3] = settings: human, hep2 cells
in vitro [4] = settings: human, h1 hela cells
HCMV = assay: HCMV/HFF antiviral assay; assay type: cell-based; settings: Human betaherpesvirus 5, HFF
Cytotoxicity, HFF = assay type: cell-based; settings: human, hff cells; read-out: HCMV/HFF CC50

SMILES | EC50 (DENV-2) | EC50 (SARS-CoV-2) | EC50 (RSV A2) | EC50 (HRV 14) | EC50 (HRV 16) | CC50 at 72 h (in vitro [1]) | CC50 at 24 h (in vitro [2]) | CC50 (in vitro [3]) | CC50 (in vitro [4]) | EC50 (HCMV) | CC50 (Cytotoxicity, HFF)
C#C[C@]1(O)[C@H](n2ccc(N)nc2=O)O[C@](F)(CO)[C@H]1O [Example 44, 4-amino-1-((2R,3R,4S,5S)-3-ethynyl-5-fluoro-3,4-dihydroxy-5-(hydroxymethyl)tetrahydrofuran-2-yl)pyrimidin-2(1H)-one] | > 10 µM | > 10 µM | > 10 µM | > 10 µM | > 10 µM | > 99 µM | > 99 µM | 10 to 99 µM | 10 to 99 µM |  | 
CC(=O)O[C@H]1[C@H](n2ncc(=O)[nH]c2=O)O[C@](F)(COC(=O)c2ccccc2)[C@H]1OC(C)=O [Example 45, (2S,3S,4R,5R)-2-((benzoyloxy)methyl)-5-(3,5-dioxo-4,5-dihydro-1,2,4-triazin-2(3H)-yl)-2-fluorotetrahydrofuran-3,4-diyl diacetate] | > 10 µM | > 10 µM | > 10 µM | > 10 µM | > 10 µM | > 99 µM | > 99 µM | > 99 µM | > 99 µM |  | 
N#Cc1ncnc2c1ccn2[C@@H]1O[C@](F)(COC(=O)c2ccccc2)[C@@H](O)[C@H]1OC(=O)c1ccccc1 [Example 50, ((2S,3S,4R,5R)-4-(benzoyloxy)-5-(4-cyano-7H-pyrrolo[2,3-d]pyrimidin-7-yl)-2-fluoro-3-hydroxytetrahydrofuran-2-yl)methyl benzoate] | 0.1 to 1 µM | > 10 µM | > 10 µM | > 10 µM | > 10 µM | 1 to 10 µM | 10 to 99 µM | 10 to 99 µM | 10 to 99 µM |  | 
CNc1nc(N)nc2c1ccn2[C@@H]1O[C@](F)(COC(=O)c2ccccc2)[C@@H](O)[C@H]1O [Example 56, ((2S,3S,4R,5R)-5-(2-amino-4-(methylamino)-7H-pyrrolo[2,3-d]pyrimidin-7-yl)-2-fluoro-3,4-dihydroxytetrahydrofuran-2-yl)methyl benzoate] | > 10 µM | > 10 µM | > 10 µM | > 10 µM | > 10 µM | > 99 µM | > 99 µM | > 99 µM | > 99 µM |  | 
CCOc1nc(N)nc2c1ncn2[C@@H]1O[C@](F)(CO)[C@@H](O)C1(F)F [Example 60, (2S,3R,5R)-5-(2-amino-6-ethoxy-9H-purin-9-yl)-2,4,4-trifluoro-2-(hydroxymethyl)tetrahydrofuran-3-ol] | > 10 µM | > 10 µM | > 10 µM | > 10 µM |  | > 99 µM | > 99 µM | > 99 µM | > 99 µM | > 10 µM | > 99 µM
CCOc1nc(N)nc2c1ncn2[C@@H]1O[C@](F)(CO)[C@@H](O)[C@@]1(C)Cl [Example 63, (2S,3R,4R,5R)-5-(2-amino-6-ethoxy-9H-purin-9-yl)-4-chloro-2-fluoro-2-(hydroxymethyl)-4-methyltetrahydrofuran-3-ol] | > 10 µM | > 10 µM | > 10 µM | > 10 µM |  | 10 to 99 µM | > 99 µM | > 99 µM | > 99 µM | > 10 µM | 
CCOc1nc(N)nc2c1ncn2[C@@H]1O[C@](F)(CO)[C@@H](O)[C@]1(F)Cl [Example 66, (2S,3R,4S,5R)-5-(2-amino-6-ethoxy-9H-purin-9-yl)-4-chloro-2,4-difluoro-2-(hydroxymethyl)tetrahydrofuran-3-ol] | > 10 µM | > 10 µM | > 10 µM | > 10 µM |  | > 99 µM | > 99 µM | > 99 µM | > 99 µM | > 10 µM | 
CCOc1nc(N)nc2c1ncn2[C@@H]1O[C@](F)(COP(=O)(N[C@@H](C)C(=O)OC(C)C)Oc2ccccc2)[C@@H](O)C1(F)F (stereo partly drawn) [Example 69, isopropyl ((((2S,3R,5R)-5-(2-amino-6-ethoxy-9H-purin-9-yl)-2,4,4-trifluoro-3-hydroxytetrahydrofuran-2-yl)methoxy)(phenoxy)phosphoryl)-L-alaninate] | 1 to 10 µM | > 10 µM | > 10 µM | > 10 µM |  | 10 to 99 µM | 10 to 99 µM | 10 to 99 µM | 10 to 99 µM | > 10 µM | 
Nc1nc2c(ncn2[C@@H]2O[C@](F)(CO)[C@@H](O)C2(F)F)c(=O)[nH]1 [Example 71, 2-amino-9-((2R,4R,5S)-3,3,5-trifluoro-4-hydroxy-5-(hydroxymethyl)tetrahydrofuran-2-yl)-1,9-dihydro-6H-purin-6-one] | > 10 µM | > 10 µM | > 10 µM | > 10 µM |  | > 99 µM | > 99 µM | > 99 µM | > 99 µM | > 10 µM | 
